Earlier results in PubChem BioAssay AID1259409 (Chemical Carcinogenesis Research Information System (CCRIS), 2018).

Tested on: rodent chemically induced tumor inhibition, incidence and multiplicity
Test: CCRIS tumor inhibitor studies
Conditions: Promoter: NONE USED

## CCCCC(O)CCC(=O)c1ccccc1 (centres undefined)
Carcinogen: 4-(METHYLNITROSAMINO)-1-(3-PYRIDYL)-1-BUTANONE, 64091-91-4, Dose [Inhibitor]: 0, 25 UMOL IN 0.1 ML CORN OIL ONCE 2 HR PRIOR TO CARCINOGEN DOSE (STUDY DURATION: 16 WK), Route [Inhibitor]: GAVAGE, Species: MOUSE, Strain/Sex: STRAIN-A/FEMALE, Target Tissue: Type of Lesion: LUNG: TUMOR, Dose [Carcinogen]: 10 UMOL IN 0.1 ML SALINE ONCE
  tumour outcome (control, treated, inhibition, significance): 100%, 100%, 0%, not significant

## O=C1COc2ccccc21
Carcinogen: BENZO[A]PYRENE, 50-32-8, Dose [Inhibitor]: 0.034 MMOL/G IN DIET FOR 5 WK BEGINNING 1 WK PRIOR TO CARCINOGEN TREATMENT (STUDY DURATION: 21 WK), Route [Inhibitor]: ORAL, Species: MOUSE, Strain/Sex: ICR/FEMALE, Target Tissue: Type of Lesion: FORESTOMACH: TUMOR, Dose [Carcinogen]: 1 MG IN 0.2 ML CORN OIL 2/WK FOR 4 WK
  tumour outcome (control, treated, inhibition, significance): 95%, 89%, 6%, not significant

## COc1cc2ccc(=O)oc2cc1O
Carcinogen: 7,12-DIMETHYLBENZ[A]ANTHRACENE, 57-97-6, Dose [Inhibitor]: 0.068 MMOL/G IN DIET FOR 8 D BEGINNING 1 WK PRIOR TO CARCINOGEN DOSE (STUDY DURATION: 23 WK), Route [Inhibitor]: ORAL, Species: RAT, Strain/Sex: SPRAGUE-DAWLEY/FEMALE, Target Tissue: Type of Lesion: MAMMARY GLAND: TUMOR, Dose [Carcinogen]: 12 MG IN 1.0 ML OLIVE OIL ONCE
  tumour outcome (control, treated, inhibition, significance): 100%, 78%, 22%, not significant
Carcinogen: BENZO[A]PYRENE, 50-32-8, Dose [Inhibitor]: 0.034 MMOL/G IN DIET BEGINNING 1 WK PRIOR TO FIRST CARCINOGEN DOSE AND CONTINUING FOR 3 D POST LAST CARCINOGEN DOSE FOR, Route [Inhibitor]: ORAL, Species: MOUSE, Strain/Sex: ICR/HA/FEMALE, Target Tissue: Type of Lesion: FORESTOMACH: TUMOR, Dose [Carcinogen]: 1 MG IN 0.2 ML CORN OIL 2/WK FOR 4 WK
  tumour outcome (control, treated, inhibition, significance): 100%, 100%, 0%, not significant
